Results published in EP4385495A1, “NANOSYSTEMS FOR THE ENCAPSULATION OF THERAPEUTIC AGENTS” (National Technical University of Athens, priority 2022, dated 2024).

Key:
[1] = system: experimental animal model of osteoarthritis (OA); test: von Frey mechanical allodynia test in osteoarthritis rat model; assay type: in vivo, Wistar rats; conditions: for Paw Withdrawal Threshold (%): right paw/(right paw + left paw)*100
Experimental: Healthy adult male Wistar rats (150-200 g) were used for the study, with water and food ad libitum, at a constant temperature of 22°C and controlled lighting (12 h light/12 h dark cycle). […] As far as the dispersion procedure of the injectables is concerned, all the natural compounds were dissolved in saline solution, whereas the studied nanoparticles were mechanically grinded in a mortar and pestle set with saline solution and Tween 20 (2% w/v) and heated at 36 °C before each treatment. There were six treatments administered every 10 days. At the end of the experiment rats were euthanized and both knees were collected for histological analysis. Rats were anesthetized with chloral hydrate. The right knee joints of Group I were injected with normal saline solution and served as a control. Animals from the groups II, III, IV, V, VI, VII were injected with collagenase type II (Clostridium histolyticum). Collagenase (125 collagen digestion unit/mg) was dissolved in saline, and it was injected intra-articularly into the right knee joint twice on days 1 and 4 of the experiment ([…] and S. Fakurazi. Collagenase and sodium iodoacetate-induced experimental osteoarthritis model in Sprague dawley rats. Asian J. Sci. Res. 2: 1-13, 2009). The left knees of all animals were left untreated as a control. For the evaluation of the effectiveness and time of release of the encapsulated compounds, all animals were subjected to a series of behavioral testing in addition to the measurements of body weight and knees diameter change. The experimental protocol of the present study followed the combination of three different behavioral tests, which are von Frey mechanical allodynia test, grid walking and slope walking test. Behavioral tests are performed in three phases, at the beginning before the start of treatment, in the middle of treatment (approximately 35-40 days) and at the end (after the 70th day). Mechanical allodynia was tested by the von Frey method which detects pain threshold as the paw withdrawal response. For the testing, rats were placed into plastic chambers that allow access to the plantar surface of the hind paws. […] In Table 15 below, the nociceptive threshold is defined as: nociceptive threshold (%) = ([…])/((nociceptive; threshold on right paw + nociceptive threshold of left paw))*100 [formula] Table 13: von Frey-paw withdrawal threshold (g)

CCK-8 viability assay = assay type: cell-based; conditions: human, primary human chondrocytes; read-out: Mean % relative viability
Experimental: b) The viability of human primary chondrocytes was evaluated following incubation with increasing concentrations of either the pure Naringin (S1) or the nanosystems (Samples S2 and S3) at 2-10-50µM of encapsulated Naringin (1:5 serial dilutions) for 72h (higher concentrations were not used because the nanosystems become insoluble and aggregates sediment on the cell monolayer). For S2 this corresponded to 6,4 µg/ml (for 2 µM of Naringin), 32 µg/ml (for 10 µM of Naringin) and 158 µg/ml (for 50 µM of Naringin) respectively, of total NP concentration. For S3 (CS[PLA[NAR]]) the total NP concentrations to provide the same µM of encapsulated Naringin were 14,4 / 72 / 360 µg/m). As control for the nanosystems, a blank PLA nanoparticle preparation coated with chitosan (S4) was used, at the same µg/ml polymer concentration like the ones used to achieve the 2-10-50µM range for Naringin (the difference being that the blank contains no Naringin). Finally, the blank S4 was used at the 14,4/72/360 µg/ml concentration range (1:5 serial dilutions). Following incubation, the CCK-8 viability kit was used according to manufacturer's instructions (Sigma, 96992-500TESTS-F). Macroscopical and microscopical observation confirmed the proper complete solubility and dispersion of the Nanoparticles. Importantly, healthy cell morphology was observed (spindle-like attached cells with several processes) with concomitant absence of undissolved material.
Table 5. Effect of the natural products and the nanosystems on the relative cell viability of primary human chondrocytes. Measurements obtained using the CCK-8 viability kit. Values normalized to positive control (PC; set to 100; arbitrary unit). Samples' coding: S1= pure Naringin, S2=Naringin encapsulated in PLA nanoparticles [PLA[NAR]], S3=Naringin encapsulated in PLA nanoparticles coated with chitosan CS[PLA[NAR]], and S4=Blank PLA nanoparticles coated with chitosan, CS(PLA[---]].

Compound: C[C@@H]1O[C@@H](O[C@H]2[C@H](Oc3cc(O)c4c(c3)O[C@H](c3ccc(O)cc3)CC4=O)O[C@H](CO)[C@@H](O)[C@@H]2O)[C@H](O)[C@H](O)[C@H]1O [S1 [NAR], Naringin]
- von Frey-paw withdrawal threshold ([1]; 11 days (before treatment)): 63 g
- von Frey-paw withdrawal threshold ([1]; 40 days (half of experimental protocol), 10 mg/kg (S1, ibuprofen i.p.; nanoparticles i.a.)): 81,12 g
- von Frey-paw withdrawal threshold ([1]; 70 days (end of experimental protocol), 10 mg/kg (S1, ibuprofen i.p.; nanoparticles i.a.)): 83,96 g
- von Frey-paw withdrawal threshold ([1]; left-control paw): 88,68 g
- paw withdrawal thresholds after commencement of treatment (in words) ([1]; rat, in vivo): presented an increase
- Paw Withdrawal Threshold (%) ([1]; 11 days (before treatment)): 41,53%
- Paw Withdrawal Threshold (%) ([1]; 40 days (half of experimental protocol)): 45,55%
- Paw Withdrawal Threshold (%) ([1]; 70 days (end of experimental protocol)): 45,95%
- viability at 72 h, 10 µM (CCK-8 viability assay): 136%
- viability at 72 h, 50 µM (CCK-8 viability assay): 130%
- viability at 72 h, 200 µM (CCK-8 viability assay): 111%
